{
  "source": "patent US20180362921A1",
  "about": "“EXTRACTION AND PROCESS FOR ACTIVE THYLAKOID MEMBRANES” (GROUPE SANTÉ DEVONIAN INC., priority 2015, published 2018)",
  "target": "T1, PSII reaction centers of thylakoid extract (Spinacia oleracea, UniProt P69560)",
  "T1 construct": "both lyophilized thylakoid extracts were resuspended in: Tris-HCl 50 mM pH 7.5; sorbitol 330 mM; from tissue; host or cells: plant thylakoid membrane extract (lyophilized, rehydrated)",
  "assay": "Inhibition of Fv/Fm (photosynthetic efficiency) of thylakoid extract by atrazine",
  "format": "biochemical, Spinacia oleracea L.",
  "note": "Where two headings read alike, the source gives them in different places.",
  "procedure": "Each re-suspended extract was dark-incubated for 15 min with the appropriate atrazine concentration for 15 minutes.\nAbsorbed light was measured with a FMS1 Hansatech Instrument (Schreiber et al., 1986; lab based modulated fluorescence); under excitation light beam at 470 nm. In dark adapted condition, the following fluorescence parameters can be obtained or calculated: • Fo: minimal fluorescence when PSII reaction centers are in the fully oxidized state. It is obtained at the beginning of fluorescence measurement when only the modulating beam is illuminated. • Fm: obtained with an intense saturating pulse (2 000 μmol photons m^2/s) allowing maxi mum PSII fluorescence emission. • Fv: variable fluorescence is obtained by the difference between Fm and Fo and corresponds to maximum capacity for photochemical energy quenching.\nFv/Fm: this ratio is proportional to quantum efficiency of PSII reaction centers (Butker 1977, 1978) and represents a correlation between the chlorophyll fluorescence and the photochemical reactions (for instance oxygen evolution).\nAny molecule affecting the photosystems will modify either Fo or Fm which modification necessarily disrupts (increases or decreases) the photosynthetic efficiency. […]",
  "data": [
    {"smiles": "CCNc1nc(Cl)nc(NC(C)C)n1", "note": "[atrazine]", "values": [
      {"measurement": "IC50", "setting": "IC50 (atrazine concentration inhibiting 50% of the efficiency parameter), extract after 7 days at 20° C., 5 μg/mL chlorophyll, 15 min dark incubation", "result": 116, "unit": "nM"},
      {"measurement": "IC50", "setting": "several batches of thylakoid extract, 95% confidence, FIG. 4, read-out: IC50 of an accepted lot (within 2σ of the mean IC50)", "result": "76.5 to 218", "unit": "nM"}
    ]}
  ]
}
